Columns and labels:
[1] = target: T1, Mineralocorticoid receptor (Homo sapiens) (UniProt P08235); test: Antagonist activity at full-length human MR expressed in CHO-K1 cells assessed as inhibition of aldosterone-induced response measured after overnight incubation by luminesence analysis; type: cell-based
T1 sequence (whole entry): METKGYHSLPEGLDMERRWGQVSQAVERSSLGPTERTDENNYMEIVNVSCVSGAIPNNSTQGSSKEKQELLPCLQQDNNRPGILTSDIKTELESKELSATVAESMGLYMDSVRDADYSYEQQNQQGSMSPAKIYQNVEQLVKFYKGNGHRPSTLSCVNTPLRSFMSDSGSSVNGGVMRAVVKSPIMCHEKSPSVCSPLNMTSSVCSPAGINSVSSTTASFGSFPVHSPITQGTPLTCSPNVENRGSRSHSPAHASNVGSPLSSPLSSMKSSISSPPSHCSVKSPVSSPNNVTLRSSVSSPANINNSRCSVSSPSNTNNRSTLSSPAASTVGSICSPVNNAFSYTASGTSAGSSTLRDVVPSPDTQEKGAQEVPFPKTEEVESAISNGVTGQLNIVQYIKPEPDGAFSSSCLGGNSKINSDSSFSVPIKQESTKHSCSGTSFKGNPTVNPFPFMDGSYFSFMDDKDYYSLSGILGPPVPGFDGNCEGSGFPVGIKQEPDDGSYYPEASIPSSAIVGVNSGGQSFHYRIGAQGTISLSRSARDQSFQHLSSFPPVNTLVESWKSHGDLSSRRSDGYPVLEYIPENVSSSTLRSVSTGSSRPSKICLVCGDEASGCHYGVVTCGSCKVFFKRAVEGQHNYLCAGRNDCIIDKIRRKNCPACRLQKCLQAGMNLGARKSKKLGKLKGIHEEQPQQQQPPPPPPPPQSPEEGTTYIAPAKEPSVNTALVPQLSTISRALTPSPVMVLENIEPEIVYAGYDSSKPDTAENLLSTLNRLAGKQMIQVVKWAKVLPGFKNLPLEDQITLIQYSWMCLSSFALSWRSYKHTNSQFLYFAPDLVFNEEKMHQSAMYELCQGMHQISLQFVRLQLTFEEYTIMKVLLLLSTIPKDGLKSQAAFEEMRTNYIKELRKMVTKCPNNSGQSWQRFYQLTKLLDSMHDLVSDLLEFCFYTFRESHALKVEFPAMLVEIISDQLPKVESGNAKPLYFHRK

[2] = Half life in human liver microsomes; type: ADME, microsome
[3] = Half life in human hepatocytes; type: ADME, cell-based, Hepatocyte
[4] = target: T2, Mineralocorticoid receptor (Homo sapiens, UniProt P08235); test: Binding affinity to MR (unknown origin)
T2 sequence (P08235 whole entry): T1 sequence (whole entry)

[5] = target: T2, Mineralocorticoid receptor; test: Displacement of [3H]-Aldosterone from MR overexpressed in human 293 cells measured after overnight incubation by TopCount method; type: cell-based
Glucocorticoid receptor [6] = target: T3, Glucocorticoid receptor (Homo sapiens, UniProt P04150); test: Displacement of [3H]-dexamethasone from GR overexpressed in human 293 cells measured after overnight incubation by TopCount method; type: cell-based
T3 sequence (P04150 whole entry): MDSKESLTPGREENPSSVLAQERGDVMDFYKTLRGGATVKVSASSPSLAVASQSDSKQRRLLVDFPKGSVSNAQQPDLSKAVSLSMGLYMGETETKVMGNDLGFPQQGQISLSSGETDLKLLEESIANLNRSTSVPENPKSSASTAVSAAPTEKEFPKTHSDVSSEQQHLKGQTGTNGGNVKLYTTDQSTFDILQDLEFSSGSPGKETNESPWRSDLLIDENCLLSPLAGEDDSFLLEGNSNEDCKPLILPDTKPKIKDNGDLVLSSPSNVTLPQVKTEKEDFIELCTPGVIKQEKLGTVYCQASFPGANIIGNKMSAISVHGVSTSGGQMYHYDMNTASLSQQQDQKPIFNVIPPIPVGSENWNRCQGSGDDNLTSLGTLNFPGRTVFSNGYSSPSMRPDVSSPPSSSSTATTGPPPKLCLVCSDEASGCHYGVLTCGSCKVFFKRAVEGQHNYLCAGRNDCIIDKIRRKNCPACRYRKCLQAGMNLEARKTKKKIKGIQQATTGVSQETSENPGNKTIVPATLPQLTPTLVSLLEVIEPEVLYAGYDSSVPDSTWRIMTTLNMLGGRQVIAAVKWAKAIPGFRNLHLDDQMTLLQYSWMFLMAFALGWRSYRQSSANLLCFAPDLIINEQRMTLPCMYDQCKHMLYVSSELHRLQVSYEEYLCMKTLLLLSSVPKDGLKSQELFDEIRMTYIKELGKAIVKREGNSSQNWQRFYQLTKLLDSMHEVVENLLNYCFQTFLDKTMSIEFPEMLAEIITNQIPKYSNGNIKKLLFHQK

[7] = Clearance in rat; type: ADME; details: in vivo
[8] = Half life in rat; type: ADME; details: in vivo
Androgen receptor = target: T4, Androgen receptor (Homo sapiens, UniProt P10275); test: Antagonist activity at GAL4-fused human AR LBD (667 to 919 residues) expressed in CHO-K1 cells assessed as inhibition of dihydrotestosterone-induced transactivation activity after 5 to 6 hrs by luciferase reporter gene assay; type: cell-based
T4 sequence (P10275 whole entry): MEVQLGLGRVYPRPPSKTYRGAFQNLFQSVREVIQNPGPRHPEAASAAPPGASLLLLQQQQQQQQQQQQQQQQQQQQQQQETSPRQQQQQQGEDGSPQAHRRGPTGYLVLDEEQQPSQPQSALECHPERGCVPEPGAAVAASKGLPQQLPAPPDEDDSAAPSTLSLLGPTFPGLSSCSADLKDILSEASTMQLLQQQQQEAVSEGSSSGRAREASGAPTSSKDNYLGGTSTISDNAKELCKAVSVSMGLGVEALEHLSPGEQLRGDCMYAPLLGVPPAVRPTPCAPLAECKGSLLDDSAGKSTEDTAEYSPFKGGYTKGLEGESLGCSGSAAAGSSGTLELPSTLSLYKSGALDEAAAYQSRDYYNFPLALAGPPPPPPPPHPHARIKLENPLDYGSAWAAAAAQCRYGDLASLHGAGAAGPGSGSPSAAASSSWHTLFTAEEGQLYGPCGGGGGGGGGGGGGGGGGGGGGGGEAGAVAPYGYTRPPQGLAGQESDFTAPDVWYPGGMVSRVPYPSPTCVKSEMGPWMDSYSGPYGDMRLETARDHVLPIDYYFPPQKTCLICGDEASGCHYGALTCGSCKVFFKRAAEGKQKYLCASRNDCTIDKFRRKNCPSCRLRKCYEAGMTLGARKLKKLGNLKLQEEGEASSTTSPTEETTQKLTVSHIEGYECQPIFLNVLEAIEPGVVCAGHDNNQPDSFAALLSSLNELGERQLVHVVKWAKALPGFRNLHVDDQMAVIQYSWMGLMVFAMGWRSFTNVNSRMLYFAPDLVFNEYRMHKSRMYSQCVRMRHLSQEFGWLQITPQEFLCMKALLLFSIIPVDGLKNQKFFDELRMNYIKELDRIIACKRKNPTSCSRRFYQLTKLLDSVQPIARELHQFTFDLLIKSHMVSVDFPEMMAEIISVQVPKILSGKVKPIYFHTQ

Progesterone receptor = target: T5, Progesterone receptor (Homo sapiens, UniProt P06401); test: Antagonist activity at GAL4-fused human PR LBD (680 to 933 residues) expressed in CHO-K1 cells assessed as inhibition of progesterone-induced transactivation activity after 5 to 6 hrs by luciferase reporter gene assay; type: cell-based
T5 sequence (P06401 whole entry): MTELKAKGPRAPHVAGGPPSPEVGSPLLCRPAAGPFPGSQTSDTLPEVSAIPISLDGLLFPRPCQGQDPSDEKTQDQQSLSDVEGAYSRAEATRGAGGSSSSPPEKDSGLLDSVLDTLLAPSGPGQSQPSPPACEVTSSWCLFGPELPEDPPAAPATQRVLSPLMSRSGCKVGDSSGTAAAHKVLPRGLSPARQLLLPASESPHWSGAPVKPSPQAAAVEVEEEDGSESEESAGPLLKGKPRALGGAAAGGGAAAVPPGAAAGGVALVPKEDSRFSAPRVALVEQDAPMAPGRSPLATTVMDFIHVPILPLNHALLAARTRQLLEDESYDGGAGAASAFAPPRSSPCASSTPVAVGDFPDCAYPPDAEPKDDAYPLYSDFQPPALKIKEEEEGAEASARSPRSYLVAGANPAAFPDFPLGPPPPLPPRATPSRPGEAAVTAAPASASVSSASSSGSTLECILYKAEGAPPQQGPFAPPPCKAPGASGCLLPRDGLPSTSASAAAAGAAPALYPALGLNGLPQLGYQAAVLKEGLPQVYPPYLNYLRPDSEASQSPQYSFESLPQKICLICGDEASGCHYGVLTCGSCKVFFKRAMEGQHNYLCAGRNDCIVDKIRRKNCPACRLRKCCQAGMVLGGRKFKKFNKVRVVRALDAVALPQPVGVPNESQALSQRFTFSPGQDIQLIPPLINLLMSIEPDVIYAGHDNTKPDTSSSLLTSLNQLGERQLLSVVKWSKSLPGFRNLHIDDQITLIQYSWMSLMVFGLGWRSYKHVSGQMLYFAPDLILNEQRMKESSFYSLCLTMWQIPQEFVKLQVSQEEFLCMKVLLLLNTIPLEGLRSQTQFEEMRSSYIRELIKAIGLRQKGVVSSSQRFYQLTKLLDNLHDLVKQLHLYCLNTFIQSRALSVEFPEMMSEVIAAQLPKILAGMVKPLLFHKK

[9] = target: T2, Mineralocorticoid receptor; test: Antagonist activity at Gal4-fused human MR LBD (734 to 985 residues) expressed in CHO-K1 cells after 5 to 6 hrs by luciferase reporter gene assay; type: cell-based
Glucocorticoid receptor [10] = target: T3, Glucocorticoid receptor; test: Antagonist activity at GAL4-fused human GR LBD (443 to 777 residues) expressed in CHO-K1 cells assessed as inhibition of dexamethasone-induced transactivation activity after 5 to 6 hrs by luciferase reporter gene assay; type: cell-based
[11] = target: T6, Mineralocorticoid receptor (Rattus norvegicus, UniProt P22199); test: Displacement of [3H]-Aldosterone from MR in rat renal soluble fraction measured after 18 hrs in presence of glucocorticoid receptor antagonist RU-486 by liquid scintillation counting method
T6 sequence (P22199 whole entry): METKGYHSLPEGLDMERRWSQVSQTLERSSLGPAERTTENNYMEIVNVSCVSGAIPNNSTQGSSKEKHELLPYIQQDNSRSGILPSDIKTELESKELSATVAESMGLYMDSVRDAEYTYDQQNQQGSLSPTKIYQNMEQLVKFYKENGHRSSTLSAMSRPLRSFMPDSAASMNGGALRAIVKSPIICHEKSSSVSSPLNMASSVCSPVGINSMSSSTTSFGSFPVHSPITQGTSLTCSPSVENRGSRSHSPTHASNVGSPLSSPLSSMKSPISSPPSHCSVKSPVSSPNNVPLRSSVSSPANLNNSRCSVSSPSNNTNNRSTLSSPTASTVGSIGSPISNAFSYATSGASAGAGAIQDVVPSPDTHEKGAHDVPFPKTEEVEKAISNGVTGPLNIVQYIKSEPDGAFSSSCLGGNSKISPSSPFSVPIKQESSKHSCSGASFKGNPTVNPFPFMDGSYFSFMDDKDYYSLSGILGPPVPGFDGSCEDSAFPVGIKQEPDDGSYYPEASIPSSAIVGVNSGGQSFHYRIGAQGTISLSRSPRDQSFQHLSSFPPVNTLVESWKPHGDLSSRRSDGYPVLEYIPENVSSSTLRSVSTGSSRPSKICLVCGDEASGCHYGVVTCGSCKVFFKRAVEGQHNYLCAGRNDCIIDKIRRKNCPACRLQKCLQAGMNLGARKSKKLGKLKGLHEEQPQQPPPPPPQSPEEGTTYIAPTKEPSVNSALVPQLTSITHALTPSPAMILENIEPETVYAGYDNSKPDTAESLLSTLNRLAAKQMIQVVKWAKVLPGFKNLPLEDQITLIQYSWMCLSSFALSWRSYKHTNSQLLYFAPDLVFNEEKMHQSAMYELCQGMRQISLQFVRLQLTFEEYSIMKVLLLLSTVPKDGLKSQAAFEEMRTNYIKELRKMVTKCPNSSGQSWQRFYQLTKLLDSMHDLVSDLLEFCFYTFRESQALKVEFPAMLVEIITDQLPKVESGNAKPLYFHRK

CCC(c1ccc(Br)cc1)(C(C)O)n1ncc2c(NS(C)(=O)=O)cccc21 (stereo not given)
Inhibitory potency [1]: 7 nM | half-life [2]: 48 min | half-life [3]: 69 min

C[C@]12C[C@H](O)[C@H]3[C@@H](CCC4=CC(=O)CC[C@@]43C)[C@@H]1CC[C@@H]2C(=O)CO [CORTICOSTERONE]
Kd [4]: 0.5 to 2 nM

Cc1ccc(C(C)(c2c[nH]c3c(NS(C)(=O)=O)cccc23)C2CC2)cc1 (stereo not given)
Ki [5]: ≤ 500 nM | Ki (Glucocorticoid receptor [6]): ≤ 500 nM

CCC(c1ccc(C(F)(F)F)cc1)(C(O)C(F)F)n1ncc2c(NS(C)(=O)=O)cccc21 (stereo not given)
Inhibitory potency [1]: 11 nM | clearance [7]: 3.8 mL/min/kg | half-life [8]: 594 min | half-life [2]: 62 min | half-life [3]: > 90 min

CCOc1nccc2c1[C@H](c1ccc(C#N)cc1OC)C(C#N)=C(C)N2
IC50 (Androgen receptor): 2800 nM | IC50 (Progesterone receptor): 5.4 µM | IC50 [9]: 47 nM | IC50 (Glucocorticoid receptor [10]): 6.9 µM

C[C@]12CCC(=O)C=C1CC[C@@H]1[C@@H]2[C@@H](O)C[C@@]2(C)[C@H]1CC[C@]2(O)C(=O)CO [HYDROCORTISONE]
Kd [4]: 0.5 to 2 nM

CCOc1ncc(C)c2c1[C@H](c1ccc(C#N)cc1OC)C(C#N)=C(C)N2
IC50 (Androgen receptor): 2400 nM | IC50 (Progesterone receptor): 4.2 µM | IC50 [9]: 26 nM | IC50 (Glucocorticoid receptor [10]): 5.8 µM

COc1cc(NC(=O)c2ccc(-c3ccccc3OC(F)(F)F)c(CCN3CC(C)OC(C)C3)c2)ccc1S(N)(=O)=O (stereo not given)
IC50 [11]: 61 nM

COc1cc(NC(=O)c2ccc(-c3ccccc3C(F)(F)F)c(COC(C)=O)c2)ccc1S(N)(=O)=O
IC50 [11]: 31 nM

COc1cc(NC(=O)c2ccc(-c3ccccc3OC(F)(F)F)c(CCN(C)C3CC3)c2)ccc1S(N)(=O)=O
IC50 [11]: 22 nM

CC(c1ccccc1)(c1c[nH]c2c(NS(C)(=O)=O)cccc12)C1CC1 (stereo not given)
Ki [5]: ≤ 500 nM | Ki (Glucocorticoid receptor [6]): ≤ 500 nM

Source: ChEMBL document CHEMBL4007392, “Modulating Mineralocorticoid Receptor with Non-steroidal Antagonists. New Opportunities for the Development of Potent and Selective Ligands without Off-Target Side Effects” (J Med Chem, 2017)
